Experiments:
[1] = system: phosphorylated AKT Ser473 (pAKT S473), mTORC2 activity, PC3 cells; assay: mTOR target engagement assay, immunofluorescent cell-based, pAKT S473 readout (mTORC2 activity); settings: Homo sapiens, PC-3, Table 3-1; PC3 cells
Method in brief: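 After blocking, cells were stained overnight at 4 °C with anti-pAKT S473 antibody, then a fluorescent secondary; inhibition was read as reduced fluorescence intensity.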

[2] = system: phosphorylated 4E-BP1 Thr37/46 (p4E-BP1 Thr37/46), mTORC1 activity, PC3 cells; assay: mTOR target engagement assay, immunofluorescent cell-based, p4E-BP1 Thr37/46 readout (mTORC1 activity); settings: Homo sapiens, PC-3, Table 3-1; PC3 cells; read-out: p4E-BP1 Thr37/46 IC50
Method in brief: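 Cell-based immunofluorescence in PC3 cells: serially diluted compounds (0.25% DMSO, 5% FBS) applied for ninety minutes at 37° C before fixation and overnight 4° C staining of p4E-BP1 Thr37/46. Untreated DMSO wells set maximal phosphorylation; IC50 obtained by logistic fitting.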

Structure (SMILES) | IC50 [1] | IC50 [2]
Cc1cc(C(=O)N2[C@@H]3CC[C@H]2C[C@H](c2nc4c(-c5ccc(-c6ccccc6)nc5)ccn4c(N)c2S(C)(=O)=O)C3)[nH]n1 [Compound 3.81, ((1R,3s,5S)-3-(7-amino-6-(methyslulfonyl)-3-(6-phenylpyridin-3-yl)pyrazolo[1,5-a]pyrimidin-5-yl)-8-azabicyclo[3.2.1]octan-8-yl)(3-methyl-1H-pyrazol-5-yl)methanone] | 100 to 1000 nM | 100 to 1000 nM
Cc1n[nH]c(CC(=O)N2[C@@H]3CC[C@H]2C[C@H](c2nc4c(-c5ccc(-c6ccccc6)nc5)cnn4c(N)c2S(C)(=O)=O)C3)n1 [Compound 3.82, 1-((1R,3s,5S)-3-(7-amino-6-(methylsulfonyl)-3-(6-phenylpyridin-3-yl)pyrazolo[1,5-a]pyrimidin-5-yl)-8-azabicyclo[3.2.1]octan-8-yl)-2-(3-methyl-1H-1,2,4-triazol-5-yl)ethanone] | 100 to 1000 nM | 100 to 1000 nM
CS(=O)(=O)c1c([C@@H]2C[C@H]3CC[C@@H](C2)N3C(=O)c2cn[nH]c2)nc2c(-c3ccc(-c4ccccc4)nc3)cnn2c1N [Compound 3.83, ((1R,3s,5S)-3-(7-amino-6-(methylsulfonyl)-3-(6-phenylpyridin-3-yl)pyrazolo[1,5-a]pyrimidin-5-yl)-8-azabicyclo[3.2.1]octan-8-yl)(1H-pyrazol-4-yl)methanone] | 1 to 100 nM | 1 to 100 nM
CS(=O)(=O)c1c([C@@H]2C[C@H]3CC[C@@H](C2)N3C(=O)c2cc(CO)n[nH]2)nc2c(-c3ccc(-c4ccccc4)nc3)cnn2c1N [Compound 3.84, ((1R,3s,5S)-3-(7-amino-6-(methylsulfonyl)-3-(6-phenylpyridin-3-yl)pyrazolo[1,5-a]pyrimidin-5-yl)-8-azabicyclo[3.2.1]octan-8-yl)(3-(hydroxymethyl)-1H-pyrazol-5-yl)methanone] | 1 to 100 nM | 100 to 1000 nM
CS(=O)(=O)c1c([C@@H]2C[C@H]3CC[C@@H](C2)N3C(=O)c2cc(CN)n[nH]2)nc2c(-c3ccc(-c4ccccc4)nc3)cnn2c1N [Compound 3.85, ((1R,3s,5S)-3-(7-amino-6-(methylsulfonyl)-3-(6-phenylpyridin-3-yl)pyrazolo[1,5-a]pyrimidin-5-yl)-8-azabicyclo[3.2.1]octan-8-yl)(3-(aminomethyl)-1H-pyrazol-5-yl)methanone] | 1 to 100 nM | 1 to 100 nM
CS(=O)(=O)c1c([C@@H]2C[C@H]3CC[C@@H](C2)N3C(=O)c2nnc[nH]2)nc2c(-c3cnn(-c4ccc(F)cc4)c3)cnn2c1N [Compound 3.88, ((1R,3s,5S)-3-(7-amino-3-(1-(4-fluorophenyl)-1H-pyrazol-4-yl)-6-(methyslulfonyl)pyrazolo[1,5-a]pyrimidin-5-yl)-8-azabicyclo[3.2.1]octan-8-yl)(4H-1,2,4-triazol-3-yl)methanone] | 100 to 1000 nM | 1000 to 10000 nM
CC(=O)Nc1nnc(C(=O)N2[C@@H]3CC[C@H]2C[C@H](c2nc4c(-c5ccc(-c6ccccc6)nc5)cnn4c(N)c2S(C)(=O)=O)C3)[nH]1 [Compound 3.89] | 100 to 1000 nM | 100 to 1000 nM
CS(=O)(=O)c1c([C@@H]2C[C@H]3CC[C@@H](C2)N3C(=O)c2cn[nH]c2N)nc2c(-c3ccc(-c4ccccc4)nc3)cnn2c1N [Compound 3.90, (5-amino-1H-pyrazol-4-yl)((1R,3s,5S)-3-(7-amino-6-(methylsulfonyl)-3-(6-phenylpyridin-3-yl)pyrazolo[1,5-a]pyrimidin-5-yl)-8-azabicyclo[3.2.1]octan-8-yl)methanone] | 1 to 100 nM | 1 to 100 nM
CS(=O)(=O)c1c([C@@H]2C[C@H]3CC[C@@H](C2)N3C(=O)C(F)(F)F)nc2c(-c3ccc(-c4ccccc4)nc3)cnn2c1N [Compound 3.91, 1-((1R,3s,5S)-3-(7-amino-6-(methylsulfonyl)-3-(6-phenylpyridin-3-yl)pyrazolo[1,5-a]pyrimidin-5-yl)-8-azabicyclo[3.2.1]octan-8-yl)-2,2,2-trifluoroethanone] | 1000 to 10000 nM | 1000 to 10000 nM
COc1ccc(-c2ccc(-c3cnn4c(N)c(S(C)(=O)=O)c([C@@H]5C[C@H]6CC[C@@H](C5)N6C(=O)c5nnc[nH]5)nc34)cn2)cc1C#N [Compound 3.92, 5-(5-(5-((1R,3s,5S)-8-(4H-1,2,4-triazole-3-carbonyl)-8-azabicyclo[3.2.1]octan-3-yl)-7-amino-6-(methylsulfonyl)pyrazolo[1,5-a]pyrimidin-3-yl)pyridin-2-yl)-2-methoxybenzonitrile] | 100 to 1000 nM | 100 to 1000 nM
CN(C)c1nnc(C(=O)N2[C@@H]3CC[C@H]2C[C@H](c2nc4c(-c5ccc(-c6ccccc6)nc5)cnn4c(N)c2S(C)(=O)=O)C3)[nH]1 [Compound 3.93, ((1R,3s,5S)-3-(7-amino-6-(methylsulfonyl)-3-(6-phenylpyridin-3-yl)pyrazolo[1,5-a]pyrimidin-5-yl)-8-azabicyclo[3.2.1]octan-8-yl)(5-(dimethylamino)-4H-1,2,4-triazol-3-yl)methanone] | 100 to 1000 nM | 100 to 1000 nM
CS(=O)(=O)c1c([C@@H]2C[C@H]3CC[C@@H](C2)N3C(=O)c2cn[nH]c2O)nc2c(-c3ccc(-c4ccccc4)nc3)cnn2c1N [Compound 3.94, ((1R,3s,5S)-3-(7-amino-6-(methylsulfonyl)-3-(6-phenylpyridin-3-yl)pyrazolo[1,5-a]pyrimidin-5-yl)-8-azabicyclo[3.2.1]octan-8-yl)(5-hydroxy-1H-pyrazol-4-yl)methanone] | 100 to 1000 nM | 100 to 1000 nM
CS(=O)(=O)c1c([C@@H]2C[C@H]3CC[C@@H](C2)N3C(=O)c2nnc[nH]2)nc2c(-c3cnn(-c4ccccc4)c3)cnn2c1N [Compound 3.97, ((1R,3s,5S)-3-(7-amino-6-(methylsulfonyl)-3-(1-phenyl-1H-pyrazol-4-yl)pyrazolo[1,5-a]pyrimidin-5-yl)-8-azabicyclo[3.2.1]octan-8-yl)(4H-1,2,4-triazol-3-yl)methanone] | 1 to 100 nM | 1 to 100 nM
CS(=O)(=O)c1c([C@@H]2C[C@H]3CC[C@@H](C2)N3C(=O)c2nc(N)n[nH]2)nc2c(-c3ccc(-c4ccccc4)nc3)cnn2c1N [Compound 3.98, (3-amino-1H-1,2,4-triazol-5-yl)((1R,3s,5S)-3-(7-amino-6-(methylsulfonyl)-3-(6-phenylpyridin-3-yl)pyrazolo[1,5-a]pyrimidin-5-yl)-8-azabicyclo[3.2.1]octan-8-yl)methanone] | 1 to 100 nM | 1 to 100 nM
CS(=O)(=O)c1c([C@@H]2C[C@H]3CC[C@@H](C2)N3C(=O)c2nc(C(F)(F)F)n[nH]2)nc2c(-c3ccc(-c4ccccc4)nc3)cnn2c1N [Compound 3.99, ((1R,3s,5S)-3-(7-amino-6-(methylsulfonyl)-3-(6-phenylpyridin-3-yl)pyrazolo[1,5-a]pyrimidin-5-yl)-8-azabicyclo[3.2.1]octan-8-yl)(3-(trifluoromethyl)-1H-1,2,4-triazol-5-yl)methanone] | 1000 to 10000 nM | 1000 to 10000 nM
COc1ccc(-c2ccc(-c3cnn4c(N)c(S(C)(=O)=O)c([C@@H]5C[C@H]6CC[C@@H](C5)N6C(=O)c5nnc(N)[nH]5)nc34)cn2)cc1F [Compound 3.100, ((1R,3s,5S)-3-(7-amino-3-(6-(3-fluoro-4-methoxyphenyl)pyridin-3-yl)-6-(methylsulfonyl)pyrazolo[1,5-a]pyrimidin-5-yl)-8-azabicyclo[3.2.1]octan-8-yl)(5-amino-4H-1,2,4-triazol-3-yl)methanone] | 1 to 100 nM | 1 to 100 nM
CS(=O)(=O)c1c([C@@H]2C[C@H]3CC[C@@H](C2)N3C(=O)c2nnc[nH]2)nc2c(-c3ccc(-c4ccccn4)nc3)cnn2c1N [Compound 3.102, ((1R,3s,5S)-3-(3-(2,2′-bipyridin-5-yl)-7-amino-6-(methylsulfonyl)pyrazolo[1,5-a]pyrimidin-5-yl)-8-azabicyclo[3.2.1]octan-8-yl)(4H-1,2,4-triazol-3-yl)methanone] | 1 to 100 nM | 1 to 100 nM
CS(=O)(=O)c1c([C@@H]2C[C@H]3CC[C@@H](C2)N3C(=O)c2nnc[nH]2)nc2c(-c3ccc(-c4ccccc4F)nc3)cnn2c1N [Compound 3.104, ((1R,3s,5S)-3-(7-amino-3-(6-(2-fluorophenyl)pyridin-3-yl)-6-(methylsulfonyl)pyrazolo[1,5-a]pyrimidin-5-yl)-8-azabicyclo[3.2.1]octan-8-yl)(4H-1,2,4-triazol-3-yl)methanone] | 1 to 100 nM | 1 to 100 nM
CS(=O)(=O)c1c([C@@H]2C[C@H]3CC[C@@H](C2)N3C(=O)c2nnc[nH]2)nc2c(-c3ccc(-c4ccc(F)cc4)nc3)cnn2c1N [Compound 3.105, ((1R,3s,5S)-3-(7-amino-3-(6-(4-fluorophenyl)pyridin-3-yl)-6-(methylsulfonyl)pyrazolo[1,5-a]pyrimidin-5-yl)-8-azabicyclo[3.2.1]octan-8-yl)(4H-1,2,4-triazol-3-yl)methanone] | 1 to 100 nM | 1 to 100 nM
Cn1cc(-c2ccc(-c3cnn4c(N)c(S(C)(=O)=O)c([C@@H]5C[C@H]6CC[C@@H](C5)N6C(=O)c5nnc[nH]5)nc34)cn2)cn1 [Compound 3.106, ((1R,3s,5S)-3-(7-amino-3-(6-(1-methyl-1H-pyrazol-4-yl)pyridin-3-yl)-6-(methylsulfonyl)pyrazolo[1,5-a]pyrimidin-5-yl)-8-azabicyclo[3.2.1]octan-8-yl)(4H-1,2,4-triazol-3-yl)methanone] | 1 to 100 nM | 1 to 100 nM
